Like-named read-outs stand apart in the source and are kept apart here.
Experiments:
striatum dopamine level = assay: Protection against MPTP-induced striatal dopamine decrease in mice; assay type: in vivo, male CFY mice; conditions: for inhibition in vivo at 100 µmol/kg: Mus musculus, 0.1 mmole/kg, 1 hour before MPTP 70 mg/kg s.c., striatum DA 72-96 hours after MPTP
Method: The dopaminergic activity of the compounds of the invention was determined by in vitro and in vivo animals tests. On the examination of the in vivo activity, the protective capability of the compounds against the neurotoxic effect of 1-methyl-4-phenyl-1,2,3,6-tetrahydropyridine (MPTP) was also studied. […] Davis et al.: Psychiat.
(§1) For these investigations male CFY mice (LATI, Godollo, Hungary) weighing 20-25 g were used. The compounds to be tested were homogenized in 1% Tween 80 solution and administered to the animals in a dose of 0.1 mmole/kg (in the route given in the Table) 1 hour before administering MPTP. MPTP was freshly dissolved in physiological saline solution and subcutaneously given to the mice in a dose of 70 mg/kg. 72 to 96 hours after the administration of MPTP the animals were killed by decapitation, their brain was rapidly removed, cooled in an ice-cold physiological saline solution, the striatum was excised and refrigerated in dry ice.
The tissues (in a refrigerated condition) were weighed and homogenized in 1 ml of 0.4N perchloric acid solution containing 0.5% of Na2 S2 O5, 0.25 % of Na2 EDTA and 100 ng of M-methyldopamine (internal standard for the determination of catecholamines) in an Ultra-Turrax equipment. The homogenate was centrifuged at 4° C. at 20,000 g for 10 minutes, then 0.8 ml of the supernatent was taken out. After adding 20 mg of activated aluminum oxide, the pH value of the solution was adjusted to 8 by adding 0.5M Tris solution and the tubes were shaken for 20 minutes. The aluminium oxide was settled, the supernatent was removed by suction and washed 3 times with 5 ml of distilled water each. The catecholamines adsorbed on the aluminium oxide were eluted with 1 ml of 0.05N perchloric acid. From a part of the eluate, dopamine was determined by using high pressure liquid chromatography by means of electrochemical detection (Labor MIM Oe-320 pump, 4×150 mm Nucleosil 5 C-18 analytical column and 4×20 mm Nucleosil 5 C-18 supplementary column; electrochemical detector fitted with a glassy-carbon working electrode and an Ag/AgCl2 reference electrode; Eltron potentiostat, LKB 2110 2-channel recorder; with an oxidation potential of 600 mV and as mobile phase 0.1M NaH2 PO4, 1 mM Na2 EDTA, 1 mM octanesulfonic acid containing 8.5% of acetonitrile; flow rate 1 ml/minute).
The protection against the dopamine decrease induced by MPTP was calculated as follows: [formula]
(§2) As a referenced drug, trihexyphenidyl hydrochloride (α-cyclohexyl-α-phenyl-1-piperidinepropanol hydrochloride) was used in a dose of 10 mg/kg (<0.1 mmole/kg).

[1] = dose higher than 10 mg/kg; mice
Method: as §1, §2

dopaminergic system [2] = conditions: cited from earlier work
dopaminergic system [3] = conditions: cited from earlier work; remark: listed apart in the source
[4] = po, read-out: DA decrease induced by MPTP, % inhibition, p.o. route
[5] = ip, read-out: DA decrease induced by MPTP, % inhibition, i.p. route

SMILES | inhibition in vivo at 100 µmol/kg (striatum dopamine level; [4]) | inhibition in vivo at 100 µmol/kg (striatum dopamine level; [5]) | other results
CCC(=O)N1CCN(CCOC(c2ccc(F)cc2)c2ccc(F)cc2)CC1 [Compound 14, 1-[2-[bis(4-fluorophenyl)methoxy]ethyl]-4-(1-oxo-propyl)piperazine] | 71% | – | –
C=CCN1CCN(CCOC(c2ccc(F)cc2)c2ccc(Br)cc2)CC1 (centres unmarked) [Compound 5, 1-[2-[(4-bromophenyl)-(4-fluorophenyl)methoxy]-ethyl]-4-(2-propenyl)piperazine] | – | 100% | –
Cl.OC(CCN1CCCCC1)(c1ccccc1)C1CCCCC1 (stereo not drawn) [Trihexyphenidyl.HCl, α-cyclohexyl-α-phenyl-1-piperidinepropanol hydrochloride, reference compound] | – | – | lethality at doses above 10 mg/kg [1]: The animals perished on administration of a higher dose; DA decrease induced by MPTP, % inhibition, i.p. route (reference drug) (striatum dopamine level; i.p., 10 mg/kg (<0.1 mmole/kg), before MPTP 70 mg/kg s.c.): 7%
C=CCN1CCN(CCOC(C)(c2ccc(F)cc2)c2ccc(F)cc2)CC1 [Compound 10, 1-[2-[1-bis(4-fluorophenyl)ethoxy]ethyl]-4-(2-propenyl)piperazine] | – | 89% | –
C#CCN1CCN(CCOC(c2ccc(F)cc2)c2ccc(F)cc2)CC1 [Compound 12, 1-[2-[bis(4-fluorophenyl)methoxy]ethyl]-4-(2--propynyl)piperazine] | 94% | – | –
C=CCN1CCN(CCOC(c2ccc(F)cc2)c2ccc(F)cc2)CC1 [Compound 1, 1-[2[bis(4-fluorophenyl)methoxy]ethyl]-4-(2-propenyl)-piperazine] | 100% | 98% | –
C=CCN1CCN(CCOC(c2ccccc2)c2ccc(F)cc2)CC1 (centres unmarked) [Compound 3, 1-[2-[(4-fluorophenyl)-phenylmethoxy]ethyl]-4-(2-propenyl)piperazine] | 100% | – | –
CCCCN1CCN(CCOC(c2ccc(F)cc2)c2ccc(Cl)cc2)CC1 (centres unmarked) [Compound 16, 1-[2-[(4-chlorophenyl)-(4-fluorophenyl)methoxy]-ethyl]-4-butylpiperazine] | 86% | – | –
CCCCN1CCN(CCOC(c2ccc(F)cc2)c2ccc(F)cc2)CC1 [Compound 9, 1-[2-[bis(4-flurophenyl)methoxy]ethyl]-4-butyl-piperazine] | – | 100% | –
CN1CC=C(c2ccccc2)CC1.Cl [MPTP, 1-methyl-4-phenyl-1,2,3,6-tetrahydropyridine hydrochloride] | – | – | degeneration of the dopaminergic system in men and monkeys (dopaminergic system [2]): causes the degeneration of the dopaminergic system; selective dopaminergic system-damaging effect on mice (dopaminergic system [3]): selective dopaminergic system-damaging effect
C=C(C)CN1CCN(CCOC(c2ccc(F)cc2)c2ccc(F)cc2)CC1 [Compound 13, 1-[2-[bis(4-fluorophenyl)methoxy]ethyl]-4-(2-methyl--2-propenyl)-piperazine] | 95% | – | –
C=CCN1CCN(CCOC(c2ccccc2)c2ccc(Cl)c(Cl)c2)CC1 (centres unmarked) [Compound 7, 1-[2-[(3,4-dichlorophenyl)-phenylmethoxy]ethyl]--4-(2-propenyl)-piperazine] | 98% | 100% | –
CCCCCCN1CCN(CCOC(c2ccc(F)cc2)c2ccc(F)cc2)CC1 [Compound 17, 1-[2-[bis(4-fluorophenyl)methoxy]ethyl]-4-hexyl-piperazine] | 89% | – | –
CCCN1CCN(CCOC(c2ccc(F)cc2)c2ccc(F)cc2)CC1 [Compound 2] | – | 100% | –
CCCCCC(=O)N1CCN(CCOC(c2ccc(F)cc2)c2ccc(F)cc2)CC1 [Compound 11, 1-[2-[bis(4-fluorophenyl)methoxy]ethyl]-4-(1-oxo-hexyl)piperazine] | – | 82% | –
CCCCN1CCN(CCOC(c2ccccc2)c2ccc(Cl)c(Cl)c2)CC1 (centres unmarked) [Compound 15] | – | 98% | –
C=CCN1CCN(CCOC(c2ccc(Cl)cc2)c2ccc(Cl)cc2)CC1 [Compound 6, 1-[2-[bis(4-chlorophenyl)methoxy]ethyl]-4-(2-propenyl)piperazine] | – | 100% | –
CCCN1CCN(CCOC(c2ccc(F)cc2)c2ccc(Cl)cc2)CC1 (centres unmarked) [Compound 8, 1-[2-[(4-chlorophenyl)-(4-flurophenyl)methoxy]-ethyl]-4-propyl-piperazine] | – | 95% | –
C=CCN1CCN(CCOC(c2ccc(F)cc2)c2ccc(Cl)cc2)CC1 (centres unmarked) [Compound 4, 1-[2-[(4-chlorophenyl)-(4-fluorophenyl)methoxy]-ethyl]-4-(2-propenyl)piperazine] | – | 100% | –

From patent US4874765A, “1,4-Disubstituted piperazines having dopaminergic activity” (Richter Gedeon Vegyeszeti Gyar, priority 1986, dated 1989)
